Measurements published in patent US9732031B2 (priority 2013, dated 2017).
Each block holds one compound with its values, some of them ahead of it.

Tests used:
[1] = biological target: T1, norepinephrine transporter (Rattus norvegicus, UniProt Q63380); experiment: Inhibition of norepinephrine uptake in rat hypothalamus synaptosomes; type: biochemical
T1 construct: tissue Cerep, France (assay provider); host or cells: rat hypothalamus synaptosomes
Method: The inhibitory activity of the (S)- and (R)-enantiomers of 1-(m-chlorophenyl)-2-(tert-butylamino)-(2-^2H)-propan-1-one was evaluated in the rat synaptosome assay (Cerep, France). Briefly, compounds were incubated for 20 min at 37° C. with rat hypothalamus synaptosomes in the presence of tritiated norepinephrine (NE). The uptake of radiolabeled NE by the synaptosomes was measured as a function of compound concentration. Inhibition of the transporter is observed when the amount of radioactivity in the synaptosomes is lower in the presence of test article. Analysis of the data was performed using the log(inhibitor) vs. response—variable slope (four parameters) model in GraphPad Prism 6.0 (GraphPad Software, Inc., La Jolla, Calif.), where response is % inhibition (% inhibition=100 [(NE uptake)control−(NE uptake)compound)]/(NE uptake)vehicle). Both inhibition curves were characterized by Hill slopes close to 1.

female CD-1 mice = experiment: Behavioral effects after intraperitoneal injection in female CD-1 mice; conditions: 2 h observation
Method: Individual body weights were used for dose volume calculations. Equal numbers of animals per group were tested each day. […] Animals were also observed 24 h post-dose. During the 2 h observation period, presence or absence of ataxic gait, paralysis, hyperactivity, hypoactivity, and catatonic episodes was recorded. Number, time of onset, duration, and intensity of convulsions were also recorded. Duration of each convulsion was graded as short (1 to 10 s), medium (11 to 30 s), or long (≧31 s). Intensity of convulsion was similarly graded as mild, moderate, or severe. Any animal showing a single episode of severe seizure longer than 1 min or experiencing greater than 40 consecutive episodes of severe convulsions over 1 h or less was euthanized.

[2] = biological target: T2, human α7 nicotinic acetylcholine receptor (Homo sapiens, UniProt P36544); experiment: Inhibition of acetylcholine induced current in Xenopus Laevis oocytes overexpressing α7 nAChR; type: cell-based
T2 construct: expressed in transfected cells; host or cells: Xenopus laevis oocytes injected with cDNA
T2 sequence (P36544 23-502): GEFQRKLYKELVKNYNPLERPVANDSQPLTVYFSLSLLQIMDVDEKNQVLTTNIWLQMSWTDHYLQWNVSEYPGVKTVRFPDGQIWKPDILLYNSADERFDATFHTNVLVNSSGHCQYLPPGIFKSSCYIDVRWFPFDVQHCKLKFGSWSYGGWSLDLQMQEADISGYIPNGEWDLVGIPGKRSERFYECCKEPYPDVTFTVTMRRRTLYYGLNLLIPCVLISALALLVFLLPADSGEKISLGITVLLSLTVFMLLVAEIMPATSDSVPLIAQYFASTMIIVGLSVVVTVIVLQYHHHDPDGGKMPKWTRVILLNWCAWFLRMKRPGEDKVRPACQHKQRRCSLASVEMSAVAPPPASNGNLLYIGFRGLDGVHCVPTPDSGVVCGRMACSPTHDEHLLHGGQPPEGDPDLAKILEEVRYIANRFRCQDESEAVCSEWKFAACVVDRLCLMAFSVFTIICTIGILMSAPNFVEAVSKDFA
Method: Evaluation of the antagonist activity of the enantiomers of deuterated bupropion at α7 and α4β2 nicotinic acetylcholine receptors (nAChRs) was carried out in Xenopus Laevis oocytes prepared and injected with the corresponding cDNA using standard procedures. Receptor expression was examined two days after injection. For α4β2 nAChR, the two cDNAs were injected in equimolar amounts. All experiments were performed at 18° C. and cells were superfused with OR2 medium containing 82.5 mM sodium chloride, 2.5 mM potassium chloride, 5 mM HEPES, 1.8 mM calcium chloride, and 1 mM magnesium chloride at pH 7.4. A two-electrode voltage-clamp configuration was used to record currents evoked by acetylcholine addition. Data acquisition and analysis was performed in Matlab (Mathworks, Inc., Natick, Mass.). Statistical analysis was executed in Excel (Microsoft Corp, Redmond, Wash.) or Matlab (Mathwork, Inc., Natick, Mass.). All experiments were carried out using at least 3 oocytes.

dopamine transporter = biological target: T3, dopamine transporter (Rattus norvegicus, UniProt P23977); experiment: Inhibition of dopamine uptake in rat striatum synaptosomes; type: biochemical
T3 construct: tissue Cerep, France (assay provider); host or cells: rat striatum synaptosomes
T3 sequence (P23977 whole entry): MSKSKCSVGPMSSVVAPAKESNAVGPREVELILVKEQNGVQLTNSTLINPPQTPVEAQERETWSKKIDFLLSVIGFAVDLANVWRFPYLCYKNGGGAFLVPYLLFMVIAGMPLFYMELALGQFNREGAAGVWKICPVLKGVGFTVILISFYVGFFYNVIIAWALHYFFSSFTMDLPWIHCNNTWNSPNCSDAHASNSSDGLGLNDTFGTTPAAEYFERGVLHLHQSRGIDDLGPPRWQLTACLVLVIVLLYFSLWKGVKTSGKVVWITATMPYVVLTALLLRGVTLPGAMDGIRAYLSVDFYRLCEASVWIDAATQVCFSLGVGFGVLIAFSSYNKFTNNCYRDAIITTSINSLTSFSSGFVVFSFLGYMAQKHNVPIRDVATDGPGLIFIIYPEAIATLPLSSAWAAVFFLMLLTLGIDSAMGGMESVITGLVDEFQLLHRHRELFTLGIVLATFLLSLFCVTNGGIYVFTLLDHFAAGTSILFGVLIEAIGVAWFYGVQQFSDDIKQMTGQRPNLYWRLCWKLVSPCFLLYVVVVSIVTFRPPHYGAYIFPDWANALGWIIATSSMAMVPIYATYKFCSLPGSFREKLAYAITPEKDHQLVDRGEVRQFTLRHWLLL
Method: The inhibitory activity of the (S)- and (R)-enantiomers of 1-(m-chlorophenyl)-2-(tert-butylamino)-(2-^2H)-propan-1-one was evaluated in the rat synaptosome assay (Cerep, France). Briefly, each compound was incubated for 15 min at 37° C. with rat striatum synaptosomes in the presence of tritiated dopamine (DA). The uptake of radiolabeled DA by the synaptosomes was measured by scintillation counting as a function of compound concentration. Inhibition of the dopamine transporter is observed when the amount of radioactivity in the synaptosomes is lower in the presence of the test article than in its absence. Analysis of the data was performed using the log(inhibitor) vs. response—variable slope (four parameters) model in GraphPad Prism 6.0 (GraphPad Software, Inc., La Jolla, Calif.), where response is % inhibition (% inhibition=100 [(DA uptake)control−(DA uptake)compound)]/(DA uptake)vehicle). Both inhibition curves were characterized by Hill slopes close to 1.

in vivo = conditions: male, C57BL/6, mouse, po; for half-life: 75 mg/kg
Method: As appreciated, h-rac-bupropion is a 1:1 mixture of the two protonated enantiomers h-S-bupropion and h-R-bupropion. […] Animals were euthanized at preset time points (n=3 per time point). […] Quantitative data was analyzed in Excel (Microsoft Corp, Redmond, Wash.) using the PKSolver add-in (version 2, as described by Zhang et al. in Comput Methods Programs Biomed 99 (2010) 306-314) to determine PK parameters.

T1 sequence (Q63380 1-617): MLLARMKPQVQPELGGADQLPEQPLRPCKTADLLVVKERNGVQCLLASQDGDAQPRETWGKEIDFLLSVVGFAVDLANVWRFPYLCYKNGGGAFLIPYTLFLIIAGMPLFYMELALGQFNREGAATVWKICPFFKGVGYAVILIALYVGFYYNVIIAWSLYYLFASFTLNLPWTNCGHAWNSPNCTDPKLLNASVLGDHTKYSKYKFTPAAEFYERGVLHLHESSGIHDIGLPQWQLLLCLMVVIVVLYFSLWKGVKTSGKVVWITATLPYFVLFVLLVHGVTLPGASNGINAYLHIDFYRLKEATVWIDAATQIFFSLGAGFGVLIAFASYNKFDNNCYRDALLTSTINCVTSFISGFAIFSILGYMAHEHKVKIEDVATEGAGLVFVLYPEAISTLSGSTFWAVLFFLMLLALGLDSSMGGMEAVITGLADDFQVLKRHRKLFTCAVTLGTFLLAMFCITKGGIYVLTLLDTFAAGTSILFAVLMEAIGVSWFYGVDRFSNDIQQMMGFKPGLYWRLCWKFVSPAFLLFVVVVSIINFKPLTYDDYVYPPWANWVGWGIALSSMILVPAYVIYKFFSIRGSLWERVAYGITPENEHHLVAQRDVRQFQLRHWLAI

Structure (SMILES): [2H][C@@](C)(NC(C)(C)C)C(=O)c1cccc(Cl)c1 [d-S-bupropion, (S)-1-(m-chlorophenyl)-2-(tert-butylamino)-(2-^2H)-propan-1-one]
IC50 [1]: 2.3 µM | mice per dose group experiencing ataxia (female CD-1 mice; 100 mg/kg i.p.): 70% | mice per dose group experiencing catatonia (female CD-1 mice; 100 mg/kg i.p.): 10% | mice per dose group experiencing convulsions (female CD-1 mice; 100 mg/kg i.p.): 40% | mice per dose group experiencing hyperactivity (female CD-1 mice; 100 mg/kg i.p.): 100% | mice per dose group experiencing hypoactivity (female CD-1 mice; 100 mg/kg i.p.): 0% | mice per dose group experiencing ataxia (female CD-1 mice; 125 mg/kg i.p.): 89% | mice per dose group experiencing catatonia (female CD-1 mice; 125 mg/kg i.p.): 44% | mice per dose group experiencing convulsions (female CD-1 mice; 125 mg/kg i.p.): 70% | mice per dose group experiencing hyperactivity (female CD-1 mice; 125 mg/kg i.p.): 78% | mice per dose group experiencing hypoactivity (female CD-1 mice; 125 mg/kg i.p.): 0% | mice per dose group experiencing ataxia (female CD-1 mice; 150 mg/kg i.p.): 100% | mice per dose group experiencing catatonia (female CD-1 mice; 150 mg/kg i.p.): 80% | mice per dose group experiencing convulsions (female CD-1 mice; 150 mg/kg i.p.): 100% | mice per dose group experiencing hyperactivity (female CD-1 mice; 150 mg/kg i.p.): 20% | mice per dose group experiencing hypoactivity (female CD-1 mice; 150 mg/kg i.p.): 80% | IC50 [2]: 43.2 µM | IC50 (dopamine transporter): 0.42 µM | AUC0-t of dSS (d-SS-hydroxybupropion) in plasma (in vivo): 6.545 µg·h/mL | AUC0-t of hR (h-R-bupropion) in plasma (in vivo): 0.269 µg·h/mL | AUC0-t of hRR (h-RR-hydroxybupropion) in plasma (in vivo): 1.129 µg·h/mL | AUC0-t of hS (h-S-bupropion) in plasma (in vivo): 0.469 µg·h/mL | AUC0-t of hSS (h-SS-hydroxybupropion) in plasma (in vivo): 0.395 µg·h/mL | AUC(0-t) (in vivo): 4.76 µg·h/mL | half-life (in vivo): 0.9 h

Structure (SMILES): [2H][C@](C)(NC(C)(C)C)C(=O)c1cccc(Cl)c1 [d-R-bupropion, (R)-1-(m-chlorophenyl)-2-(tert-butylamino)-(2-^2H)-propan-1-one]
IC50 [1]: 5.76 µM | mice per dose group experiencing ataxia (female CD-1 mice; 100 mg/kg i.p.): 56% | mice per dose group experiencing catatonia (female CD-1 mice; 100 mg/kg i.p.): 78% | mice per dose group experiencing convulsions (female CD-1 mice; 100 mg/kg i.p.): 33% | mice per dose group experiencing hyperactivity (female CD-1 mice; 100 mg/kg i.p.): 0% | mice per dose group experiencing hypoactivity (female CD-1 mice; 100 mg/kg i.p.): 100% | mice per dose group experiencing ataxia (female CD-1 mice; 125 mg/kg i.p.): 80% | mice per dose group experiencing catatonia (female CD-1 mice; 125 mg/kg i.p.): 90% | mice per dose group experiencing convulsions (female CD-1 mice; 125 mg/kg i.p.): 60% | mice per dose group experiencing hyperactivity (female CD-1 mice; 125 mg/kg i.p.): 0% | mice per dose group experiencing hypoactivity (female CD-1 mice; 125 mg/kg i.p.): 100% | mice per dose group experiencing ataxia (female CD-1 mice; 150 mg/kg i.p.): 90% | mice per dose group experiencing catatonia (female CD-1 mice; 150 mg/kg i.p.): 100% | mice per dose group experiencing convulsions (female CD-1 mice; 150 mg/kg i.p.): 100% | mice per dose group experiencing hyperactivity (female CD-1 mice; 150 mg/kg i.p.): 0% | mice per dose group experiencing hypoactivity (female CD-1 mice; 150 mg/kg i.p.): 100% | IC50 [2]: 28.7 µM | IC50 (dopamine transporter): 4.2 µM | AUC0-t of dRR (d-RR-hydroxybupropion) in plasma (in vivo): 22.059 µg·h/mL | AUC0-t of hR (h-R-bupropion) in plasma (in vivo): 0.496 µg·h/mL | AUC0-t of hRR (h-RR-hydroxybupropion) in plasma (in vivo): 1.685 µg·h/mL | AUC0-t of hS (h-S-bupropion) in plasma (in vivo): 0.34 µg·h/mL | AUC0-t of hSS (h-SS-hydroxybupropion) in plasma (in vivo): 0.169 µg·h/mL | half-life (in vivo): 1.7 h

AUC0-t of hR (h-R-bupropion) in plasma (in vivo): 6.798 µg·h/mL | AUC0-t of hRR (h-RR-hydroxybupropion) in plasma (in vivo): 18.393 µg·h/mL | AUC0-t of hS (h-S-bupropion) in plasma (in vivo): 5.265 µg·h/mL | AUC0-t of hSS (h-SS-hydroxybupropion) in plasma (in vivo): 6.591 µg·h/mL
Structure (SMILES): CC(NC(C)(C)C)C(=O)c1cccc(Cl)c1 (racemic) [h-rac-bupropion, racemic-1-(m-chlorophenyl)-2-(tert-butylamino)-propan-1-one, reference compound]
